Experimental data reported in patent publication US20240027453A1, “METHOD FOR DETECTION AND QUANTITATIVE MONITORING OF INFECTIONS WITH HERPESVIRUSES” (The Trustees of Princeton University, priority 2020, published 2024).
Where two headings read alike, the source gives them in different places.

Test system: HCMV
Assay type: cell-based
Conditions: FIG. 7A
How it was run: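 Viral protein levels come from parallel reaction monitoring on a Q Exactive HF: trypsin digests of infected-cell lysates, quantified as summed transition areas, normalized to host control peptides, averaged across peptides per protein. Cells were MRC5 fibroblasts, infected at MOI 3 (HSV-1 or HCMV) after 12 h compound pretreatment, with re-dosing every 24 h.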
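Throughout, for UL32 (P08318) protein level: each peptide scaled to its average across all runs.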
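Throughout, for UL38 (P16779) protein level: each peptide scaled to its average across all runs.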
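Throughout, for UL78 (P16751) protein level: each peptide scaled to its average across all runs.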
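Throughout, for UL95 (P16801) protein level: each peptide scaled to its average across all runs.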

Oc1ccc(C=Cc2cc(O)cc(O)c2)cc1 [Resveratrol]
CVC2 (P16726) protein level (timepoint 24, DE): 0.02416
DBP (P17147) protein level (timepoint 24, DE): 0.2603
HELI (P16736) protein level (timepoint 24, DE): 0.5239
IR01 (P09710) protein level (timepoint 24, DE): 0.2395
NEC2 (P16791) protein level (timepoint 24, DE): 0.05031
TRM1 (P16724) protein level (timepoint 24, DE): 0.0496
UL4 (P17146) protein level (timepoint 24, DE): 0.02792
UL26 (P16762) protein level (timepoint 24, DE): 0.08745
UL32 (P08318) protein level (timepoint 24, DE): 0.02724
UL34 (P16812) protein level (timepoint 24, DE): 0.1096
UL38 (P16779) protein level (timepoint 24, DE): 0.9691
UL44 (P16790) protein level (timepoint 24, DE): 0.0591
UL48 (P16785) protein level (timepoint 24, DE): 0.02194
UL54 (P08546) protein level (timepoint 24, DE): 0.6295
UL71 (P16823) protein level (timepoint 24, DE): 0.5252
UL78 (P16751) protein level (timepoint 24, DE): 1.896
UL84 (P16727) protein level (timepoint 24, DE): 0.1406
UL95 (P16801) protein level (timepoint 24, DE): 0.06756
UL96 (P16787) protein level (timepoint 24, DE): 0.4727
UL97 (P16788) protein level (timepoint 24, DE): 0.3652
UL98 (P16789) protein level (timepoint 24, DE): 0.2979
UL102 (P16827) protein level (timepoint 24, DE): 0.889
UL104 (P16735) protein level (timepoint 24, DE): 0.07335
UL112/UL113 (P17151) protein level (timepoint 24, DE): 0.3601
UL114 (P16769) protein level (timepoint 24, DE): 0.8008
UL119/UL118 (P16739) protein level (timepoint 24, DE): 0.5596
UL128 (P16837) protein level (timepoint 24, DE): 0.08035
US8 (P09730) protein level (timepoint 24, DE): 0.9856
US9 (P09729) protein level (timepoint 24, DE): 1.12
US12 (P09721) protein level (timepoint 24, DE): 1.673
US13 (P09720) protein level (timepoint 24, DE): 0.5476
US14 (P09719) protein level (timepoint 24, DE): 0.3883
US22 (P09722) protein level (timepoint 24, DE): 0.3379
US23 (P09701) protein level (timepoint 24, DE): 1.209
US24 (P09700) protein level (timepoint 24, DE): 1.019
US34 (P09709) protein level (timepoint 24, DE): 2.475
gB (P06473) protein level (timepoint 24, DE): 0.2035
IRS1 (P09715) protein level (timepoint 24, IE): 0.53
TRS1 (P09695) protein level (timepoint 24, IE): 0.2907
UL13 (P16755) protein level (timepoint 24, IE): 2.216
UL36 (P16767) protein level (timepoint 24, IE): 1.36
UL37 (P16778) protein level (timepoint 24, IE): 0.9797
UL122 (P19893) protein level (timepoint 24, IE): 0.06584
UL123 (P13202) protein level (timepoint 24, IE): 1.053
CVC1 (P16799) protein level (timepoint 24, L): 0.1335
IR11 (P16809) protein level (timepoint 24, L): 0.4092
MCP (P16729) protein level (timepoint 24, L): 0.005554
TRM2 (P16792) protein level (timepoint 24, L): 0.01236
UL22A (P16845) protein level (timepoint 24, L): 0.06878
UL25 (P16761) protein level (timepoint 24, L): 0.02173
UL29 (P16764) protein level (timepoint 24, L): 0.6989
UL31 (P16848) protein level (timepoint 24, L): 0.4434
UL43 (P16781) protein level (timepoint 24, L): 0.0621
UL52 (P16793) protein level (timepoint 24, L): 0.02488
UL80 (P16753) protein level (timepoint 24, L): 0.03642
UL82 (P06726) protein level (timepoint 24, L): 0.2024
UL88 (P16731) protein level (timepoint 24, L): 0.05174
UL94 (P16800) protein level (timepoint 24, L): 0.1027
UL99 (P13200) protein level (timepoint 24, L): 0.04805
UL103 (P16734) protein level (timepoint 24, L): 0.3861
UL117 (P16770) protein level (timepoint 24, L): 0.7439
gH (P12824) protein level (timepoint 24, L): 0.08651
gL (P16832) protein level (timepoint 24, L): 0.03756
gM (P16733) protein level (timepoint 24, L): 0.04047
gN (P16795) protein level (timepoint 24, L): 0.1854
DUT (P16824) protein level (timepoint 24, LL): 0.3815
IR12 (P16810) protein level (timepoint 24, LL): 0.1305
TRX1 (P16783) protein level (timepoint 24, LL): 0.007402
TRX2 (P16728) protein level (timepoint 24, LL): 0.006335
UL24 (P16760) protein level (timepoint 24, LL): 0.115
UL40 (P16780) protein level (timepoint 24, LL): 0.6816
UL47 (P16784) protein level (timepoint 24, LL): 0.01314
UL49 (P16786) protein level (timepoint 24, LL): 0.3801
UL69 (P16749) protein level (timepoint 24, LL): 0.259
UL70 (P17149) protein level (timepoint 24, LL): 0.2151
UL83 (P06725) protein level (timepoint 24, LL): 0.04868
UL132 (P69338) protein level (timepoint 24, LL): 0.1519
US15 (P09718) protein level (timepoint 24, LL): 2.089
CVC2 (P16726) protein level (timepoint 48, DE): 0.04895
DBP (P17147) protein level (timepoint 48, DE): 0.3174
HELI (P16736) protein level (timepoint 48, DE): 0.7035
IR01 (P09710) protein level (timepoint 48, DE): 0.3325
NEC2 (P16791) protein level (timepoint 48, DE): 0.1347
RIR1 (P16782) protein level (timepoint 48, DE): 0.1467
TRM1 (P16724) protein level (timepoint 48, DE): 0.1744
UL4 (P17146) protein level (timepoint 48, DE): 0.1071
UL26 (P16762) protein level (timepoint 48, DE): 0.09224
UL32 (P08318) protein level (timepoint 48, DE): 0.06407
UL34 (P16812) protein level (timepoint 48, DE): 0.1265
UL35 (P16766) protein level (timepoint 48, DE): 0.02653
UL38 (P16779) protein level (timepoint 48, DE): 0.8069
UL44 (P16790) protein level (timepoint 48, DE): 0.09657
UL48 (P16785) protein level (timepoint 48, DE): 0.05393
UL54 (P08546) protein level (timepoint 48, DE): 0.9464
UL71 (P16823) protein level (timepoint 48, DE): 0.3661
UL78 (P16751) protein level (timepoint 48, DE): 1.07
UL84 (P16727) protein level (timepoint 48, DE): 0.1489
UL95 (P16801) protein level (timepoint 48, DE): 0.2914
UL96 (P16787) protein level (timepoint 48, DE): 0.3861
UL97 (P16788) protein level (timepoint 48, DE): 0.3732
UL98 (P16789) protein level (timepoint 48, DE): 0.3412
UL102 (P16827) protein level (timepoint 48, DE): 1.27
UL104 (P16735) protein level (timepoint 48, DE): 0.1091
UL112/UL113 (P17151) protein level (timepoint 48, DE): 0.4545
UL114 (P16769) protein level (timepoint 48, DE): 1.322
UL119/UL118 (P16739) protein level (timepoint 48, DE): 0.6367
UL128 (P16837) protein level (timepoint 48, DE): 0.03596
US8 (P09730) protein level (timepoint 48, DE): 1.343
US9 (P09729) protein level (timepoint 48, DE): 2.242
US12 (P09721) protein level (timepoint 48, DE): 0.8964
US13 (P09720) protein level (timepoint 48, DE): 0.5923
US14 (P09719) protein level (timepoint 48, DE): 0.2304
US22 (P09722) protein level (timepoint 48, DE): 0.5371
US23 (P09701) protein level (timepoint 48, DE): 0.5982
US24 (P09700) protein level (timepoint 48, DE): 0.4857
US34 (P09709) protein level (timepoint 48, DE): 2.409
gB (P06473) protein level (timepoint 48, DE): 0.1991
IRS1 (P09715) protein level (timepoint 48, IE): 0.8671
TRS1 (P09695) protein level (timepoint 48, IE): 0.7123
UL13 (P16755) protein level (timepoint 48, IE): 0.6646
UL36 (P16767) protein level (timepoint 48, IE): 1.045
UL37 (P16778) protein level (timepoint 48, IE): 1.143
